Assay results reported in US20180110762A1, “Compositions Methods for Treating Chronic Kidney Disease” (Merck Sharp & Dohme Corp, priority 2015, published 2018).

Target: T1, αvβ3 purified from 293 cells overexpressing αvβ3 (Homo sapiens, UniProt P05106+P06756)
T1 construct: made in house; host or cells: 293 cells overexpressing αvβ3
Test: SPAV3 binding assay (scintillation proximity)
Source text: • 1. Wheat germ agglutinin Scintillation Proximity Beads (SPA): Amersham • 2. Octylglucopyranoside: Calbiochem • 3. HEPES: Calbiochem • 4. NaCl: Fisher • 5. CaCl2: Fisher • 6. MgCl2: SIGMA • 7. Phenylmethylsulfonylfluoride (PMSF): SIGMA • 8. Optiplate: PACKARD • 9. (S)-3-(4-(2-(6-aminopyridin-2-yl)ethyl)benzamido)-2-((4-(iodo-^125I)phenyl)sulfonamido)propanoic acid as found in WO0046215 (specific activity 500-1000 Ci/mmole) • 10. Test compound • 11. Purified integrin receptor: αvβ3 was purified from 293 cells overexpressing αvβ3 (Duong et al., J. Bone Min. Res., 8:S378, 1993) according to Pytela (Methods in Enzymology, 144:475, 1987) • 12. Binding buffer: 50 mM HEPES, pH 7.8, 100 mM NaCl, 1 mM Ca^2+/Mg^2+, 0.5 mM PMSF • 13. 50 mM octylglucoside in binding buffer: 50-OG buffer
• 1. Pretreatment of SPA beads: • 500 mg of lyophilized SPA beads were first washed four times with 200 ml of 50-OG buffer and once with 100 ml of binding buffer, and then resuspended in 12.5 ml of binding buffer. • 2. Preparation of SPA beads and receptor mixture • In each assay tube, 2.5 μl (40 mg/ml) of pretreated beads were suspended in 97.5 μl of binding buffer and […] of 50-OG buffer. […] (˜30 ng/μ1) of purified receptor was added to the beads in suspension with stirring at room temperature for 30 minutes. The mixture was then centrifuged at 2,500 rpm in a Beckman GPR Benchtop centrifuge for 10 minutes at 4° C. The pellets were then resuspended in 50 μl of binding buffer and 25 μl of 50-OG buffer. • 3. Reaction • The following were sequentially added into Optiplate in corresponding wells: • (i) Receptor/beads mixture (75 μl) • (ii) 25 μl of each of the following: compound to be tested, binding buffer for total binding or A-8 for non-specific binding (final concentration 1 μM) • (iii) (S)-3-(4-(2-(6-aminopyridin-2-yl)ethyl)benzamido)-2-((4-(iodo-^125I)phenyl)sulfonamido)propanoic acid as found in WO0046215 (specific activity 500-1000 Ci/mmole) in binding buffer (25 μl, final concentration 40 pM) • (iv) Binding buffer (125 μl) • (v) Each plate was sealed with plate sealer from PACKARD and incubated overnight with rocking at 4° C. • 4. Plates were counted using PACKARD TOPCOUNT • 5. % inhibition was calculated as follows: • A=total counts • B=nonspecific counts • C=sample counts
% inhibition=[{(A−B)−(C−B)}/(A−B)]/(A−B)×100

T1 sequence (P06756 31-889 limits assumed): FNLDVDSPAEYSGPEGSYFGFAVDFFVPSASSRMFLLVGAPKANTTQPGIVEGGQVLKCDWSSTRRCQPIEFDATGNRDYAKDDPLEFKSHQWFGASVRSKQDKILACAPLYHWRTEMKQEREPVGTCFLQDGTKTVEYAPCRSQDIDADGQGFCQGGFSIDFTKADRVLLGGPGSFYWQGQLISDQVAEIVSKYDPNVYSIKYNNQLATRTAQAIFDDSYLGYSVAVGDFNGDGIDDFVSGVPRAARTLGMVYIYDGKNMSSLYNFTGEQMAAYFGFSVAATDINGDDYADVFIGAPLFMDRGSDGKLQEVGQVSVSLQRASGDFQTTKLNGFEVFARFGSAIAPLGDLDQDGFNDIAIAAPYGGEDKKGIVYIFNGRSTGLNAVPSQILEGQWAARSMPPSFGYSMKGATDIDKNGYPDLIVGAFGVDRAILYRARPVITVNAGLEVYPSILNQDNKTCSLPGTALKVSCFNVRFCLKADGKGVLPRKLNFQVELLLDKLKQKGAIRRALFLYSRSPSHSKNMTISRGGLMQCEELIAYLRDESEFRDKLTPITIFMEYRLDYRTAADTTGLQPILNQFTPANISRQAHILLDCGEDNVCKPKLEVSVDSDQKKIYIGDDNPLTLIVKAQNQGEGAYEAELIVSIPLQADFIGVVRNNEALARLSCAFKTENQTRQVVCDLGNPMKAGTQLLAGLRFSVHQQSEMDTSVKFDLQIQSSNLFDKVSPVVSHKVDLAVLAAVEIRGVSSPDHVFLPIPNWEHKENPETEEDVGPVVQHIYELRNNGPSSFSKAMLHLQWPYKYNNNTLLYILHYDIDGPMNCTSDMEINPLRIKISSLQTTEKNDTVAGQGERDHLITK
T1 sequence (P06756 891-1048 partner limits assumed): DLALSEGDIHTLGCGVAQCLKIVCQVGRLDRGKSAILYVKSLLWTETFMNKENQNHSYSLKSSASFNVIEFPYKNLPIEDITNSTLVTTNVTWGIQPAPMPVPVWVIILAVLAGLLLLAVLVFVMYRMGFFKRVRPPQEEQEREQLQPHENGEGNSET
T1 sequence (P05106 27-788): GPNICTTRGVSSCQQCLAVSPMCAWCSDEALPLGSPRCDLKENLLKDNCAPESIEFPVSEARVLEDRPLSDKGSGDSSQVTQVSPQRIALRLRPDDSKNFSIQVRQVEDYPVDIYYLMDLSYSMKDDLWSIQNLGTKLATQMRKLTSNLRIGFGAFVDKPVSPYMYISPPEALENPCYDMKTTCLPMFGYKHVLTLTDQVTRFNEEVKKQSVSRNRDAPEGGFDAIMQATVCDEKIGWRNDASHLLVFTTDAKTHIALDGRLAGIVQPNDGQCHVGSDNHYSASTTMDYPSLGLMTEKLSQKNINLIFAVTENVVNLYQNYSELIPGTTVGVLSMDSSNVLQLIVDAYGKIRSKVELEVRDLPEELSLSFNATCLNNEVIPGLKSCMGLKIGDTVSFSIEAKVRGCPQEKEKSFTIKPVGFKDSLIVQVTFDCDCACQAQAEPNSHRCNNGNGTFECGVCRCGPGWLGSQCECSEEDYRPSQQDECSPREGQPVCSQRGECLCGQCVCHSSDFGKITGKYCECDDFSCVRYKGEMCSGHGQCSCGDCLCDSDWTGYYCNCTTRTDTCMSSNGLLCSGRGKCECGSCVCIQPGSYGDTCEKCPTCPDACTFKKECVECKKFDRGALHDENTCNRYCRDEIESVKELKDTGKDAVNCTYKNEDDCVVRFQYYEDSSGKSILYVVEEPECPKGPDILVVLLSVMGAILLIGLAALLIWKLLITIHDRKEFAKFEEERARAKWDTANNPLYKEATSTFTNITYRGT

Compound	IC50 [nM]
O=C(O)C[C@H](/C=C/CCCCc1ccc2c(n1)NCCC2)c1cncnc1 [Compound E, 3 (R)-(Pyrimidin-5-yl)-9-(5,6,7,8-tetrahydro-[1,8]-naphthyridin-2-yl)-(E)-non-4-enoic Acid]	0.1
Cc1ncc(C(CC(=O)O)CC(=O)CCCCc2ccc3c(n2)NCCC3)cn1 (single isomer, unassigned) [Compound G, 3(S or R)-(2-Methyl-pyrimidin-5-yl)-5-oxo-9-(5,6,7,8-tetrahydro-[1,8]naphthyridin-2-yl)-nonanoic Acid]	0.1
Cc1ncc(C(CC(=O)O)CC(=O)CCCCc2ccc3c(n2)NCCCC3)cn1 [Compound H, 3(R) and 3(S)-(2-Methyl-pyrimidin-5-yl)-5-oxo-9-(5,6,7,8-tetrahydro-5H-pyrido[2,3-b]azepin-2-yl)-nonanoic Acid]	0.2
Cc1ncc([C@@H](CCCCCCc2ccc3c(n2)NCCC3)CC(=O)O)cn1 [Compound F]	0.1
COc1ccc([C@H](CC(=O)O)N2CCN(CCCc3ccc4c(n3)NCCC43CC3)C2=O)cn1 [Compound C]	0.1
CCOc1ccc([C@H](CC(=O)O)N2CCN(CCCc3ccc4c(n3)NCCC4)C2=O)cn1 [Compound D]	0.1
